Our source for the MIC values is paper PMC4331153, “In Vitro Inhibitory and Cytotoxic Activity of MFM 501, a Novel Codonopsinine Derivative, against Methicillin-Resistant Staphylococcus aureus Clinical Isolates” (BioMed Research International, 2015).

Type in all cases: cell-based
Test [1] concerns S. aureus ATCC 33591 (MRSA reference strain). Kind of test: MIC determination, broth microdilution, ATCC 33591. To be noted: Staphylococcus aureus. On the technique in general: In broth dilution the organism is exposed to a series of concentrations in liquid medium.
Test [2] concerns S. aureus ATCC 25923 (MSSA reference strain). Kind of test: MIC determination, broth microdilution, ATCC 25923. To be noted: Staphylococcus aureus.
In test [3] the test system is S. aureus isolates (MRSA and MSSA). Kind of test: MIC determination, S. aureus isolates (MRSA and MSSA). The conditions noted are these: Staphylococcus aureus, ATCC 25923 / ATCC 33591 / MRSA / MSSA; all four test isolates (N441, U949, ATCC 25923, ATCC 33591), preliminary evaluation.
The test system of test [4] is S. aureus isolate N441. Kind of test: MIC determination, broth microdilution, isolate N441. The conditions noted are these: Staphylococcus aureus.
The subject of test [5] is S. aureus isolate U949. Kind of test: MIC determination, broth microdilution, isolate U949. To be noted: Staphylococcus aureus.

Usually MIC stands for the lowest concentration found to suppress growth.

In brackets after ≈: the same amount, converted by molar mass. Read-outs that look alike come from different tables or passages of the source.

In the case of `CCCCCCC1C(C(=O)OCC)=C(O)C(=O)N1C` (stereo not drawn) [16e], the MIC in test [1] (ATCC 33591, read-out: MIC) was 125 µg/mL (≈ 464 µM); in test [2] (ATCC 25923, read-out: MIC), 250 µg/mL (≈ 928 µM); in test [3] it was 125 to 250 µg/mL (≈ 464 to 928 µM); in test [4] (isolate N441, read-out: MIC), 125 µg/mL (≈ 464 µM); in test [5] (isolate U949, read-out: MIC), 125 µg/mL (≈ 464 µM).

Take `CCOC(=O)C1=C(O)C(=O)N(Cc2ccccc2)C1c1ccc(OC)cc1` (stereo not drawn) [26e]: the MIC is 125 µg/mL (≈ 340 µM) in test [1] (ATCC 33591, read-out: MIC); 250 µg/mL (≈ 680 µM) in test [2] (ATCC 25923, read-out: MIC); 125 to 250 µg/mL (≈ 340 to 680 µM) in test [3]; 125 µg/mL (≈ 340 µM) in test [4] (isolate N441, read-out: MIC); 250 µg/mL (≈ 680 µM) in test [5] (isolate U949, read-out: MIC).

Regarding `C=CCOc1ccc(C2C(C(=O)OCC)=C(O)C(=O)N2C)cc1` (stereo not drawn) [27e], the MIC in test [1] (ATCC 33591, read-out: MIC) is > 1000 µg/mL; in test [2] (ATCC 25923, read-out: MIC), > 1000 µg/mL; in test [4] (isolate N441, read-out: MIC), > 1000 µg/mL; in test [5] (isolate U949, read-out: MIC), > 1000 µg/mL.

For `Cc1onc(-c2ccccc2)c1C(=O)N[C@@H]1C(=O)N2[C@@H]1SC(C)(C)[C@@H]2C(=O)O` [Oxacillin, reference compound], the MIC in test [1] (ATCC 33591, read-out: MIC) turned out to be 250 µg/mL (≈ 623 µM); in test [2] (ATCC 25923, read-out: MIC) it was 0.24 µg/mL (≈ 0.598 µM); in test [4] (isolate N441, read-out: MIC), 500 µg/mL (≈ 1250 µM); in test [5] (isolate U949, read-out: MIC), 500 µg/mL (≈ 1250 µM).

For `CN[C@H](CC(C)C)C(=O)N[C@H]1C(=O)N[C@@H](CC(N)=O)C(=O)N[C@H]2C(=O)N[C@H]3C(=O)N[C@H](C(=O)N[C@H](C(=O)O)c4cc(O)cc(O)c4-c4cc3ccc4O)[C@H](O)c3ccc(c(Cl)c3)Oc3cc2cc(c3O[C@@H]2O[C@H](CO)[C@@H](O)[C@H](O)[C@H]2O[C@H]2C[C@](C)(N)[C@H](O)[C@H](C)O2)Oc2ccc(cc2Cl)[C@H]1O` [Vancomycin, reference compound], the minimal inhibitory concentration (MIC) in test [1] was 3.13 µg/mL (≈ 2.16 µM); in test [2], 0.78 µg/mL (≈ 0.538 µM); in test [4], 1.56 µg/mL (≈ 1.08 µM); in test [5], 1.56 µg/mL (≈ 1.08 µM).

In the case of `CCOC(=O)C1=C(O)C(=O)N(C)C1c1ccc(C)cc1` (stereo not drawn) [compound 19e], the MIC in test [1] (ATCC 33591, read-out: MIC) is 500 µg/mL (≈ 1820 µM); in test [2] (ATCC 25923, read-out: MIC), 1000 µg/mL (≈ 3630 µM); in test [3], 500 to 1000 µg/mL (≈ 1820 to 3630 µM); in test [4] (isolate N441, read-out: MIC), 500 µg/mL (≈ 1820 µM); in test [5] (isolate U949, read-out: MIC) it was 500 µg/mL (≈ 1820 µM).
